Experiment: Thermal stability of the crystalline form (X-ray diffraction over temperature loop 25° C.→30 min at 110° C.→25° C.)
Type: physicochemical
Protocol: Protoescigenin monohydrate is stable under ambient conditions, up to 100° C. X-ray diffraction measurements of monohydrate were done at the following temperature loop: 25° C.→30 min at 110° C.→25° C.
X-ray powder diffraction (XRPD) studies were performed by means of the MiniFlex diffractometer (Rigaku Coporation, Tokyo Japan) using CuKα radiation (λ=1.54056 Å) with following parameters: • Scanning range 2θ: from 3° to 40° • Scanning speed: 0.5°/min • Measurement step: 2θ: 0.02° • Measurement temperature: ambient temperature • Detector: scintillator

stable under ambient conditions, up to (temperature) (solid state, ambient conditions): up to 100 °C
SMILES: CC1(C)CC2C3=CCC4[C@@]5(C)CC[C@H](O)[C@](C)(CO)C5CC[C@@]4(C)[C@]3(C)C[C@@H](O)[C@@]2(CO)[C@@H](O)[C@@H]1O (some centres unmarked) [Protoescigenin monohydrate, protoescigenin monohydrate]
form change on heating (X-ray diffraction) (after heating for 30 min at 110° C., loop 25° C.→110° C.→25° C.): changes to a different form, called form V

From US9073813B2, “Process for the preparation of protoescigenin” (INSTYTUT FARMACEUTYCZNY, priority 2011, dated 2015)
